In US11952365B2, “Anti-viral compounds” (Aligos Therapeutics, Inc., priority 2020, dated 2024):
pEC50, pIC50: −log10 of the molar value.

Key:
in vitro [1] = conditions: African green monkey, VeroE6 + CP (CC50), Vero E6-eGFP cells with CP-100356, absence of virus, MTS; numeric bounds
3CLpro = 3CLpro (Severe acute respiratory syndrome coronavirus 2, UniProt P0DTD1); assay: SARS-CoV-2 3CLpro protease assay (duplex, SAMDI-MS); assay type: biochemical; set-up: For the duplex assay, 3CLpro and HRV3C was added; conditions: 3CLpro, 30 mins preincubation, class symbols; read-out: SARS-Cov-2 IC50
[2] = system: SARS-CoV-2-GHB-03021/2020; assay: microbe, parasite or virus in culture; assay type: cell-based; conditions: Severe acute respiratory syndrome coronavirus 2, Vero C1008, 96 h; read-out: VeroE6 + CP (EC50)
HRV3C = HRV3C (Human rhinovirus 14, UniProt P03303); assay: HRV3C protease assay (duplex, SAMDI-MS); assay type: biochemical, HRV; conditions: HRV3C, 30 mins preincubation, class symbols; read-out: HRV IC50
Procedure, shortened: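 Compounds are preincubated 30 min with the protease pair before substrate addition, and cleavage proceeds 30 min at room temperature. Product peptides are measured by SAMDI-MS relative to internal standards, with IC50 obtained from a four-parameter fit.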

[3] = system: human beta-coronavirus OC43; assay: microbe, parasite or virus in culture; assay type: cell-based; conditions: Betacoronavirus 1, OC43, HeLa, 144 h, OC43 in HeLa cells, 6 days at 33° C., class symbols; read-out: EC50
[4] = system: SARS-CoV-2-GHB-03021/2020; assay: SARS-CoV-2 Infection Model in Huh7 Cells; assay type: cell-based; conditions: Severe acute respiratory syndrome coronavirus 2, Huh-7, 96 h, SARS-CoV-2, day 4 p.i., MTS, class symbols
human cathepsin L = target: T1, human cathepsin L (Homo sapiens, UniProt P07711); assay: cathepsin L assay; assay type: biochemical; conditions: 10 pM human cathepsin L, Z-FR-AMC 2 μM, class symbols
T1 construct: purchased R&D Systems
Procedure, shortened: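 Reactions began by adding 2 μM (final) Z-FR-AMC substrate to 10 pM human cathepsin L that had been preincubated 30 min with inhibitor. Kinetic AMC fluorescence at 355/460 nm over 30 min at 2-min intervals; four-parameter fitting gave IC50 values.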

in vitro [5] = conditions: human
[6] = Cytotoxicity plates without OC43 virus (cell-titer-glo); assay type: cell-based, human; conditions: human; HeLa cells without OC43 virus, class symbols
Procedure, shortened: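 Run as a virus-free counterpart of the OC43 cytopathic-effect assay. Attached HeLa cells received compound dilutions in EMEM with 2% FBS and were kept 6 days at 33 °C. Cell viability was then measured by CellTiter-Glo luminescence.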

Compound	CC50 (in vitro [1])	pIC50 (3CLpro)	pEC50 [2]	pIC50 (HRV3C)	pEC50 [3]	pEC50 [4]	pIC50 (human cathepsin L)	CC50 (in vitro [5])	CC50 at 6 days [6]
CC(C)NC(=O)C(=O)C(C[C@@H]1CCCNC1=O)NC(=O)[C@@H]1[C@H]2CCC[C@H]2CN1C(=O)c1cc2ccccc2[nH]1 (stereo partly drawn) [Compound 18, (1S,3aR,6aS)-2-(1H-indole-2-carbonyl)-N-(4-(isopropylamino)-3,4-dioxo-1-((S)-2-oxopiperidin-3-yl)butan-2-yl)octahydrocyclopenta[c]pyrrole-1-carboxamide]	> 100000 nM	6.70 to 7.70	5.00 to 6.00	5.70 to 6.70	6.00 to 7.00	5.00 to 6.00	≤ 5.00	> 100000 nM	> 10000 nM
O=C(NCc1ccccc1)C(=O)C(C[C@@H]1CCNC1=O)NC(=O)[C@@H]1C[C@@H](C(F)(F)F)CN1C(=O)c1cc2ccccc2[nH]1 (stereo partly drawn) [Compound 19, N-benzyl-3-[[(2S,4R)-1-(1H-indole-2-carbonyl)-4-(trifluoromethyl)pyrrolidin-2-yl]formamido]-2-oxo-4-[(3S)-2-oxopyrrolidin-3-yl]butanamide]	> 100000 nM	5.70 to 6.70	5.00 to 6.00	4.70 to 5.70	6.00 to 7.00	5.00 to 6.00	6.00 to 7.00	> 10000 nM	> 10000 nM
O=C(NCc1ccccc1)C(=O)[C@H](C[C@@H]1CCNC1=O)NC(=O)[C@@H]1C[C@]2(CN1C(=O)c1cc3ccccc3[nH]1)CC2(F)F [Compound 22]	> 100000 nM	5.70 to 6.70	4.00 to 5.00	4.70 to 5.70	5.00 to 6.00	5.00 to 6.00	6.00 to 7.00	> 100000 nM	> 10000 nM
O=C(NCc1ccccc1)C(=O)[C@H](C[C@@H]1CCNC1=O)NC(=O)[C@@H]1C[C@@]2(CN1C(=O)c1cc3ccccc3[nH]1)CC2(F)F [Compound 23]	> 100000 nM	6.70 to 7.70	5.00 to 6.00	4.70 to 5.70	6.00 to 7.00	5.00 to 6.00	6.00 to 7.00	> 100000 nM	> 10000 nM
O=C(NCc1ccccc1)C(=O)[C@H](C[C@@H]1CCNC1=O)NC(=O)[C@@H]1CC2(CCN1C(=O)c1cc3ccccc3[nH]1)CC2 [Compound 24]	> 100000 nM	6.70 to 7.70	5.00 to 6.00	4.00 to 4.70	6.00 to 7.00	5.00 to 6.00	6.00 to 7.00	> 10000 nM	> 10000 nM
C[C@@H]1C[C@@H](C(=O)N[C@@H](C[C@@H]2CCNC2=O)C(=O)C(=O)NCc2ccccc2)N(C(=O)c2cc3ccccc3[nH]2)C1 [Compound 25]	> 100000 nM	4.70 to 5.70	4.00 to 5.00	4.70 to 5.70	5.00 to 6.00	4.00 to 5.00	6.00 to 7.00	> 100000 nM	> 10000 nM
CC1(C)CCN(C(=O)c2cc3ccccc3[nH]2)[C@H](C(=O)NC(C[C@@H]2CCNC2=O)C(=O)C(=O)NCc2ccccc2)C1 (stereo partly drawn) [Compound 26, (2S)—N-(4-(benzylamino)-3,4-dioxo-1-((S)-2-oxopyrrolidin-3-yl)butan-2-yl)-1-(1H-indole-2-carbonyl)-4,4-dimethylpiperidine-2-carboxamide]	> 100000 nM	6.70 to 7.70	4.00 to 5.00	4.70 to 5.70	6.00 to 7.00	4.00 to 5.00	> 7.00	> 100000 nM	> 10000 nM
COc1cccc2[nH]c(C(=O)N3C[C@@H]4CCC[C@@H]4[C@H]3C(=O)N[C@@H](C[C@@H]3CCNC3=O)C(=O)CO)cc12 [Compound 27, (1S,3aR,6aS)—N-[(2S)-4-hydroxy-3-oxo-1-[(3S)-2-oxopyrrolidin-3-yl]butan-2-yl]-2-(4-methoxy-1H-indole-2-carbonyl)-hexahydro-1H-cyclopenta[c]pyrrole-1-carboxamide]	> 100000 nM	> 7.70	5.00 to 6.00	4.70 to 5.70	6.00 to 7.00	5.00 to 6.00	≤ 5.00	> 100000 nM	> 10000 nM
COc1cccc2[nH]c(C(=O)N3C[C@@H]4CCC[C@@H]4[C@H]3C(=O)N[C@@H](C[C@@H]3CCNC3=O)C(=O)COCc3ccccc3)cc12 [Compound 27A, (1S,3aR,6aS)—N-[(2S)-4-(benzyloxy)-3-oxo-1-[(3S)-2-oxopyrrolidin-3-yl]butan-2-yl]-2-(4-methoxy-1H-indole-2-carbonyl)-hexahydro-1H-cyclopenta[c]pyrrole-1-carboxamide]	> 100000 nM	6.70 to 7.70	5.00 to 6.00	4.70 to 5.70	> 7.00	5.00 to 6.00	≤ 5.00	> 10000 nM	> 10000 nM
CC[C@@H]1C[C@@H](C(=O)N[C@@H](C[C@@H]2CCNC2=O)C(=O)C(=O)NCc2ccccc2)N(C(=O)c2cc3ccccc3[nH]2)C1 [Compound 28]	> 100000 nM	5.70 to 6.70	5.00 to 6.00	4.70 to 5.70	6.00 to 7.00	> 6.00	> 7.00	> 10000 nM	> 10000 nM
COc1cccc2[nH]c(C(=O)N3C[C@]4(C[C@H]3C(=O)NC(C=O)C[C@@H]3CCCNC3=O)CC4(F)F)cc12 (stereo partly drawn) [Compound 29, (3S,6S)-1,1-difluoro-5-(4-methoxy-1H-indole-2-carbonyl)-N-(1-oxo-3-((S)-2-oxopiperidin-3-yl)propan-2-yl)-5-azaspiro[2.4]heptane-6-carboxamide]	> 100000 nM	6.70 to 7.70	5.00 to 6.00	6.70 to 7.70	5.00 to 6.00	5.00 to 6.00	6.00 to 7.00	> 100000 nM	> 10000 nM
C=C[C@@H]1C[C@@H](C(=O)N[C@@H](C[C@@H]2CCNC2=O)C(=O)C(=O)NCc2ccccc2)N(C(=O)c2cc3ccccc3[nH]2)C1 [Compound 30]	> 100000 nM	6.70 to 7.70	5.00 to 6.00	5.70 to 6.70	6.00 to 7.00	5.00 to 6.00	> 7.00	> 100000 nM	> 10000 nM
COc1cccc2[nH]c(C(=O)N3CC4(CC4)C[C@H]3C(=O)N[C@@H](C[C@@H]3CCNC3=O)C(=O)CO)cc12 [Compound 31, (6S)—N-[(2S)-4-hydroxy-3-oxo-1-[(3S)-2-oxopyrrolidin-3-yl]butan-2-yl]-5-(4-methoxy-1H-indole-2-carbonyl)-5-azaspiro[2.4]heptane-6-carboxamide]	> 100000 nM	> 7.70	5.00 to 6.00	4.00 to 4.70	6.00 to 7.00	4.00 to 5.00	≤ 5.00	> 100000 nM	> 10000 nM
COc1cccc2[nH]c(C(=O)N3C[C@H](c4ccccc4)C[C@H]3C(=O)N[C@@H](C[C@@H]3CCNC3=O)C(=O)CO)cc12 [Compound 32]	> 100000 nM	6.70 to 7.70	5.00 to 6.00	5.70 to 6.70	6.00 to 7.00	5.00 to 6.00	≤ 5.00	> 100000 nM	> 10000 nM
COc1cccc2[nH]c(C(=O)N3C[C@]4(C[C@H]3C(=O)NC(C[C@@H]3CCCNC3=O)C(=O)C(=O)NCc3ccccc3)CC4(F)F)cc12 (stereo partly drawn) [Compound 33, N-benzyl-3-{[(3S,6S)-1,1-difluoro-5-(4-methoxy-1H-indole-2-carbonyl)-5-azaspiro[2.4]heptan-6-yl]formamido}-2-oxo-4-[(3S)-2-oxopiperidin-3-yl]butanamide]	> 100000 nM	6.70 to 7.70	> 6.00	5.70 to 6.70	6.00 to 7.00	5.00 to 6.00	6.00 to 7.00	> 100000 nM	> 10000 nM
COc1cccc2[nH]c(C(=O)N3C[C@]4(C[C@H]3C(=O)N[C@@H](C[C@@H]3CCCNC3=O)C(=O)C(=O)NC(C)C)CC4(F)F)cc12 [Compound 34]	> 100000 nM	6.70 to 7.70	5.00 to 6.00	5.70 to 6.70	6.00 to 7.00	4.00 to 5.00	≤ 5.00	> 100000 nM	> 10000 nM
O=C(NCc1ccccc1)C(=O)[C@H](C[C@@H]1CCNC1=O)NC(=O)[C@@H]1[C@H]2CCC[C@H]2CN1C(=O)c1nc2ccccc2[nH]1 [Compound 35]	> 100000 nM	6.70 to 7.70	4.00 to 5.00	4.70 to 5.70	5.00 to 6.00	4.00 to 5.00	≤ 5.00	> 100000 nM	> 10000 nM
